Source: ChEMBL document CHEMBL1143947, “Synthesis and in silico biological activity evaluation of new N-substituted pyrazolo-oxazin-2-one systems” (Bioorg Med Chem, 2008)

What was measured:
[1] = biological target: Prostaglandin G/H synthase 1 (Ovis aries) (UniProt P05979); assay: Inhibition of COX1 at 100 uM
[2] = biological target: Prostaglandin G/H synthase 1 (Ovis aries) (UniProt P05979); assay: Inhibition of COX1
[3] = biological target: Prostaglandin G/H synthase 1 (Ovis aries) (UniProt P05979); assay: Inhibition of COX1 at 200 uM

Chain of Prostaglandin G/H synthase 1 (Ovis aries) (P05979 whole entry, looked up): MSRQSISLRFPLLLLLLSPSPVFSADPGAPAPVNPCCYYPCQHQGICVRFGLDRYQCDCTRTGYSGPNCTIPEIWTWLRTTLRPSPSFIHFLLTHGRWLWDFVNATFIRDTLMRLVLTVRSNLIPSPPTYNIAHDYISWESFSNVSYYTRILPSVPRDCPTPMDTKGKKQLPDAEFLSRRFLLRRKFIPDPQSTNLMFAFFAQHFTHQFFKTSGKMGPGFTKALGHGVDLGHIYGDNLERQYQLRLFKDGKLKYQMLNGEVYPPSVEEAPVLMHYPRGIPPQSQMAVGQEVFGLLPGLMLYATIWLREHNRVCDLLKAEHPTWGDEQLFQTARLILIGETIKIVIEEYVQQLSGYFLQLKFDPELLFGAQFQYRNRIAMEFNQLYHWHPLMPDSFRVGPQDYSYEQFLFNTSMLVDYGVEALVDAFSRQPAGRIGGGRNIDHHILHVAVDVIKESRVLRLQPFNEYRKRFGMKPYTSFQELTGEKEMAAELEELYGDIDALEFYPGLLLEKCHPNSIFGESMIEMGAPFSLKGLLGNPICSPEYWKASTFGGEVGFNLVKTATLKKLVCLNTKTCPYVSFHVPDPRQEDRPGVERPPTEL

Row | Structure (SMILES) | inhibition [1] | IC50 [2] | inhibition [3]
1 | COc1ccc(N2C(=O)O/C(=C3/C(=O)N(c4ccccc4)N=C3C)C=C2C)cc1 | 22.6% | 269 µM | 
2 | CCCN1C(=O)O/C(=C2/C(=O)N(c3ccccc3)N=C2C)C=C1C | 16% |  | 
3 | CCN1C(=O)O/C(=C2/C(=O)N(c3ccccc3)N=C2C)C=C1C | 0% |  | 19.9%
4 | CC1=C/C(=C2\C(=O)N(c3ccccc3)N=C2C)OC(=O)N1c1ccccc1 | 61.8% | 79.4 µM | 
5 | CC1=C/C(=C2\C(=O)N(c3ccccc3)N=C2C)OC(=O)N1Cc1ccccc1 | 18% |  | 

The next lines start with the values.

Row | inhibition [1] | IC50 [2] | inhibition [3] | Structure (SMILES)
6 | 15% |  |  | CC1=C/C(=C2\C(=O)N(c3ccccc3)N=C2C)OC(=O)N1c1ccc(Br)cc1
7 | 21.9% | 251 µM |  | CC1=C/C(=C2\C(=O)N(c3ccccc3)N=C2C)OC(=O)N1c1ccc(Cl)cc1
8 | 54.6% | 91.2 µM |  | CC1=C/C(=C2\C(=O)N(c3ccccc3)N=C2C)OC(=O)N1c1ccc(C)cc1
